Key:
BACE1 = biological target: T1, BACE1 (Homo sapiens, UniProt P56817); experiment: Cellular Aβ-lowering assay (Aβ40 ELISA, HEK293 cells expressing human APP695); format: cell-based; settings: HEK293 cells stably expressing human APP695; Aβ40 in supernatant after 18-20 hrs
T1 construct: Human HEK293 cells which are stably transfected with a vector expressing a cDNA of the human APP wt gene (APP695); endogenous in cells; host or cells: HEK293 (human), stably transfected with human APP695 wt only
Protocol: Cellular Aβ-Lowering Assay:
Human HEK293 cells which are stably transfected with a vector expressing a cDNA of the human APP wt gene (APP695) were used to assess the potency of the compounds in a cellular assay. The cells were seeded in 96-well microtiter plates in cell culture medium (Iscove, plus 10% (v/v) fetal bovine serum, glutamine, penicillin/streptomycin) to about 80% confluence and the compounds were added at a 10× concentration in 1/10 volume of medium without FCS containing 8% DMSO (final concentration of DMSO was kept at 0.8% v/v). After 18-20 hrs incubation at 37° C. and 5% CO2 in a humidified incubator the culture supernatant was harvested for the determination of Aβ40 concentrations. 96well ELISA plates (e.g., Nunc MaxiSorb) were coated with monoclonal antibody which specifically recognize the C-terminal end of Aβ40 (Brockhaus et al., NeuroReport 9, 1481-1486; 1998). After blocking of non-specific binding sites with e.g. 1% BSA and washing, the culture supernatants were added in suitable dilutions together with a horseradish peroxidase-coupled Aβ detection antibody (e.g., antibody 4G8, Senetek, Maryland Heights, Mo.) and incubated for 5 to 7 hrs. Subsequently the wells of the microtiter plate were washed extensively with Tris-buffered saline containing 0.05% Tween 20 and the assay was developed with tetramethylbenzidine/H2O2 in citric acid buffer. After stopping the reaction with one volume 1 N H2SO4 the reaction was measured in an ELISA reader at 450 nm wavelength. The concentrations of Aβ in the culture supernatants were calculated from a standard curve obtained with known amounts of pure Aβ peptide.

[1] = biological target: T2, recombinant human cathepsin E (Homo sapiens, UniProt P14091); experiment: Cathepsin E fluorescent substrate kinetic assay; format: biochemical; settings: pH 4.5, substrate MR121-[…]
T2 construct: purchased R&D Systems
T2 sequence (P14091 54-396): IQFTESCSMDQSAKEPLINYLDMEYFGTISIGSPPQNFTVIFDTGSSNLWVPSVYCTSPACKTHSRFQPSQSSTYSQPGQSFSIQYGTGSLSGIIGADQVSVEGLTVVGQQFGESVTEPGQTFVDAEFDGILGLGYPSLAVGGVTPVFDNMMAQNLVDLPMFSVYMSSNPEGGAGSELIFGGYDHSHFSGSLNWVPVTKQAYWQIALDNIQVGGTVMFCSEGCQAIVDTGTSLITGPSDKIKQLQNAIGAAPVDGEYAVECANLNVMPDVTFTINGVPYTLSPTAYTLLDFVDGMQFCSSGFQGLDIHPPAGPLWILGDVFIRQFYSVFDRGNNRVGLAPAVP
Source text: Cathepsin D and Cathepsin E Fluorescent Substrate Kinetic Assays
The MR121 fluorescence assays described below are based on the fact that MR121 forms a non-fluorescent ground state complex with tryptophan. In solution this formation occurs at millimolar concentrations of tryptophan. The mechanism can be used to design a generic biochemical assay for proteases. A substrate peptide is labeled at the N-terminus with tryptophan and at the C-terminus with the fluorophore MR121 (for cathepsin D the 10 amino acid peptide […]-MR121 was used; for cathepsin E, MR121-[…] was used). In absence of protease activity, the substrates remain intact and the MR121 fluorescence is reduced by the high local Trp-concentration. If the substrates are cleaved by the enzymes the MR121 fluorescence is recovered.
The fluorescent substrate cathepsin D and cathepsin E kinetic assays were performed at room temperature in 384-well microtiter plates (black with clear flat bottom, non binding surface plates from Corning) in a final volume of 51 μl. […] The enzymatic reaction was followed in a plate: vision reader (Perkin Elmer) (excitation wavelength: 630 nm; emission: 695 nm) for at least 30 minutes in a kinetic measurement detecting an increase of MR121 fluorescence during the reaction time. […]

T1 sequence (P56817 46-501): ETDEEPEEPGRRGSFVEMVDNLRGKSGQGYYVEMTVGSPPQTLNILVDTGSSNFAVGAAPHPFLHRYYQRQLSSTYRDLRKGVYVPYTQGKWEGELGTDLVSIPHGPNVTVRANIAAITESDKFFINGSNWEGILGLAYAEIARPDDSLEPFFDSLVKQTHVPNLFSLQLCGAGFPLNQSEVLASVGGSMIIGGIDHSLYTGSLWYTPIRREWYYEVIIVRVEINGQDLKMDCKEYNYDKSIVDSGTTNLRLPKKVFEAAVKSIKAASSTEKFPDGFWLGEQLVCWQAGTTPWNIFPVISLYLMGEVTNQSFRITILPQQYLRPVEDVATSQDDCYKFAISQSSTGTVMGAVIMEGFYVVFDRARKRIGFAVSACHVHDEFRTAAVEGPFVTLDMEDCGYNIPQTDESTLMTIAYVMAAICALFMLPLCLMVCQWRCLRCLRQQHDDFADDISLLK

IC50 (BACE1) [nM] | IC50 [1] [nM] | Compound
1530 | 3800 | CC1(c2cccc(-c3cc(Cl)cc(Cl)c3)c2)COCC(N)=N1 (stereo not shown) [Example 32, 5-(3′,5′-Dichloro-biphenyl-3-yl)-5-methyl-5,6-dihydro-2H-[1,4]oxazin-3-ylamine]
980 | 13000 | CC1(c2cc(-c3cncnc3)ccc2F)COCC(N)=N1 (stereo not shown) [Example 36, 5-(2-Fluoro-5-pyrimidin-5-yl-phenyl)-5-methyl-5,6-dihydro-2H-[1,4]oxazin-3-ylamine]

Reference: patent US8399459B2, “1,4 oxazines as BACE1 and/or BACE2 inhibitors” (Hoffmann-La Roche Inc., priority 2011, dated 2013)
